Results taken from ChEMBL document CHEMBL4373746, “Structural attributes influencing unbound tissue distribution” (Eur J Med Chem, 2020).

Assays:
[1] = Unbound tissue partition coefficient, ratio of drug level in liver to plasma in Wistar Han rat at 1 to 2 mg/kg, iv infused for 10 to 20 hrs by LC-MS/MS analysis; conditions: liver/plasma
[2] = Fraction unbound in Wistar Han rat brain at 2 uM incubated for 6 hrs by equilibrium dialysis method
[3] = Unbound tissue partition coefficient, ratio of drug level in heart to plasma in Wistar Han rat at 1 to 2 mg/kg, iv infused for 10 to 20 hrs by LC-MS/MS analysis; conditions: heart/plasma
[4] = Drug concentration in total heart in Wistar Han rat at 1 to 2 mg/kg, iv infused for 10 to 20 hrs by LC-MS/MS analysis; conditions: in vivo
[5] = Total plasma concentration in Wistar Han rat at 1 to 2 mg/kg, iv infused for 10 to 20 hrs by LC-MS/MS analysis; conditions: in vivo
[6] = Fraction unbound in Wistar Han rat liver at 2 uM incubated for 6 hrs by equilibrium dialysis method
[7] = Drug concentration in total brain in Wistar Han rat at 1 to 2 mg/kg, iv infused for 10 to 20 hrs by LC-MS/MS analysis; conditions: in vivo
[8] = Fraction unbound in Wistar Han rat skeletal muscle at 2 uM incubated for 6 hrs by equilibrium dialysis method
[9] = Drug concentration in total liver in Wistar Han rat at 1 to 2 mg/kg, iv infused for 10 to 20 hrs by LC-MS/MS analysis; conditions: in vivo
[10] = Unbound tissue partition coefficient, ratio of drug level in adipose to plasma in Wistar Han rat at 1 to 2 mg/kg, iv infused for 10 to 20 hrs by LC-MS/MS analysis; conditions: adipose/plasma
[11] = Fraction unbound in Wistar Han rat plasma at 2 uM incubated for 6 hrs by equilibrium dialysis method
[12] = Drug concentration in total white adipose tissue in Wistar Han rat at 1 to 2 mg/kg, iv infused for 10 to 20 hrs by LC-MS/MS analysis; conditions: in vivo
[13] = Fraction unbound in Wistar Han rat white adipose tissue at 2 uM incubated for 6 hrs by equilibrium dialysis method
[14] = Drug concentration in total skeletal muscle in Wistar Han rat at 1 to 2 mg/kg, iv infused for 10 to 20 hrs by LC-MS/MS analysis; conditions: in vivo
[15] = Fraction unbound in Wistar Han rat heart at 2 uM incubated for 6 hrs by equilibrium dialysis method
[16] = Unbound tissue partition coefficient, ratio of drug level in brain to plasma in Wistar Han rat at 1 to 2 mg/kg, iv infused for 10 to 20 hrs by LC-MS/MS analysis; conditions: brain/plasma
[17] = Unbound tissue partition coefficient, ratio of drug level in skeletal muscle to plasma in Wistar Han rat at 1 to 2 mg/kg, iv infused for 10 to 20 hrs by LC-MS/MS analysis; conditions: skeletal muscle/plasma
[18] = Apparent permeability of the compound across dog RRCK cells by MDCK-LE assay

Structure (SMILES)	Kp uu [1]	fraction unbound at 6 h, 2 µM [2]	Kp uu [3]	Ct [4] [ng/mL]	Cp [5] [ng/mL]	fraction unbound at 6 h, 2 µM [6]	Ct [7] [ng/mL]	fraction unbound at 6 h, 2 µM [8]	Ct [9] [ng/mL]	Kp uu [10]	fraction unbound at 6 h, 2 µM [11]	Ct [12] [ng/mL]	fraction unbound at 6 h, 2 µM [13]	Ct [14] [ng/mL]	fraction unbound at 6 h, 2 µM [15]	Kp uu [16]	Kp uu [17]	Papp [18] [×10⁻⁶ cm/s]
C[C@H](c1nc2cnc(N3CCC[C@@H](C(=O)N4CCCC4)C3)nc2[nH]1)n1cc(Cl)cn1	2.8	0.155	1.5	120	50	0.111	1.8	0.0901	240	1.1	0.186	39	0.256	56	0.121	0.013	0.54	24
Cc1nc2cc(-c3cc(F)cc(C#N)c3)ccc2s1	20	0.00394	3.3	66	31	0.00815	73	0.0047	480	2.6	0.00655	570	0.000864	25	0.0101	1.5	0.6	34
CC(C)n1ncc2c1C(=O)CC1(CCN(C(=O)c3ccc4[nH]nc(C(N)=O)c4c3)CC1)C2	7.9	0.0763	1.1	62	65	0.108	0.38	0.172	500	0.98	0.119	17	0.398	30	0.121	0.0018	0.76	3.6
CC(C)(O)CS(=O)(=O)c1ccc2c(c1)nc(C(C)(C)C)n2CC1CCOCC1	5.4	0.538	1.1	91	55	0.437	6.2	0.203	320	1.7	0.469	55	0.786	60	0.321	0.13	0.48	28
COc1cc2c(OC[C@H]3NC(=O)[C@@H]4C[C@]34C)nccc2cc1C(N)=O	11	0.294	1.2	100	110	0.368	3.7	0.403	1000	0.38	0.298	16	0.803	67	0.399	0.032	0.8	19
C[C@H]1COCCN1c1nc(-c2cnc(N)nc2)c2c(n1)N([C@@]1(C)CCN(C(=O)C(C)(C)N)C1)CC2	3.6	0.0654	18	400	4.5	0.146	2	0.16	46	6.9	0.438	45	0.281	38	0.0824	0.065	3.5	5.1

Other lines, results leading:

Kp uu [1]	fraction unbound at 6 h, 2 µM [2]	Kp uu [3]	Ct [4] [ng/mL]	Cp [5] [ng/mL]	fraction unbound at 6 h, 2 µM [6]	Ct [7] [ng/mL]	fraction unbound at 6 h, 2 µM [8]	Ct [9] [ng/mL]	Kp uu [10]	fraction unbound at 6 h, 2 µM [11]	Ct [12] [ng/mL]	fraction unbound at 6 h, 2 µM [13]	Ct [14] [ng/mL]	fraction unbound at 6 h, 2 µM [15]	Kp uu [16]	Kp uu [17]	Papp [18] [×10⁻⁶ cm/s]	Structure (SMILES)
7.1	0.0111	1.8	56	120	0.0134	0.38	0.021	220	2.5	0.00353	8	0.126	17	0.0129	0.0018	0.85	4.4	Cc1ccc(CC(C)(C)NC[C@@H](O)CO[C@H](C)c2ccccc2-c2ccc(C(=O)O)c(C)c2)cc1F
2.2	0.00176	0.19	86	54	0.00258	1	0.00211	400	0.36	0.0104	4.7	0.0322	16	0.00108	0.0025	0.08	5.3	CC(C)(CC1Cc2ccccc2C1)NC[C@@H](O)COc1cc(C2CC3CC2C2C(C(=O)O)C32)ccc1C#N (some centres undefined)
8.7	0.0414	2.9	82	330	0.0303	4.2	0.0546	380	3.8	0.00473	15	0.347	16	0.0523	0.13	0.6	2.3	COc1ccc(-c2cc3c(S(=O)(=O)O)c[nH]c3cc2Cl)cc1
2.4	1	0.39	40	130	0.628	1	0.865	190	0.024	0.373	0.77	0.516	14	0.422	0.02	0.27	12	CS(=O)(=O)c1cccc(C(=O)O)c1
4.5	0.00529	2.7	240	55	0.0115	2.4	0.0154	470	2	0.0219	21	0.113	97	0.013	0.011	1.3	5.5	NC(=O)c1c(-c2ccc(Oc3ccc(Cl)cc3)cc2)nn([C@@H]2CCCN(C(=O)/C=C/CO)C2)c1N
9.8	0.0113	2.3	190	150	0.0158	39	0.0161	690	4.9	0.012	110	0.0547	95	0.016	0.35	1.3	27	C[C@H]1c2cccc(CCC(C)(C)O)c2C[C@H](CO)N1C(=O)Cc1c(Cl)cccc1Cl
0.033	0.0319	1.8	103	450	0.0598	4.4	0.0581	1.4	1.6	0.00426	14	0.229	24	0.0329	0.074	0.72	35	CC(=O)NS(=O)(=O)c1ccc(Oc2ccc(F)c(Cl)c2)c(C(F)(F)F)c1
